Assay type in all cases: functional
The test system of assay [1] is Staphylococcus aureus. Put plainly: Antibacterial activity against methicillin-resistant Staphylococcus aureus OM481.
The test system of assay [2] is Staphylococcus aureus. Put plainly: Antibacterial activity against methicillin-resistant Staphylococcus aureus OM584.
For the next assay, the system named is P388. Put plainly: Antitumor activity against mouse P388 cells implanted in CD2F1 mouse assessed as tumor growth inhibition at 6.25 mg/kg, ip relative to control.

Values after ≈ are worked out from the molar mass of the structure shown.

In general, MIC refers to the lowest concentration that inhibits growth of the organism. Low readings indicate inhibition by little substance, high ones a need for much substance. For the compound `COc1cc(O)ccc1Nc1c2ccccc2nc2c1[nH]c1ccccc12`, the MIC in the assay with Staphylococcus aureus [1] amounted to 8 µg/mL (≈ 22.5 µM); against Staphylococcus aureus [2] it was 16 µg/mL (≈ 45 µM).
`c1ccc(Nc2c3ccccc3nc3c2[nH]c2ccccc23)cc1`: the MIC against Staphylococcus aureus [1] was 8 µg/mL (≈ 25.9 µM); in the assay with Staphylococcus aureus [2] it was 4 µg/mL (≈ 12.9 µM).
With `Cl.Oc1ccccc1Nc1c2ccccc2nc2c1[nH]c1ccccc12`, the MIC with Staphylococcus aureus [1] and in the assay with Staphylococcus aureus [2] was 16 µg/mL throughout.
Take `Oc1cccc(Nc2c3ccccc3nc3c2[nH]c2ccccc23)c1`: the MIC came to 16 µg/mL (≈ 49.2 µM) with Staphylococcus aureus [1] and 8 µg/mL (≈ 24.6 µM) with Staphylococcus aureus [2].
For `Oc1ccc(Nc2c3ccccc3nc3c2[nH]c2ccccc23)cc1`, the MIC stood at 4 µg/mL (≈ 12.3 µM) in the assay with Staphylococcus aureus [1] and 2 µg/mL (≈ 6.15 µM) against Staphylococcus aureus [2].
As to `COc1ccccc1Nc1c2ccccc2nc2c1[nH]c1ccccc12`, the MIC against Staphylococcus aureus [1] and in the assay with Staphylococcus aureus [2] was more than 250 µg/mL in each case.
For `COc1cccc(Nc2c3ccccc3nc3c2[nH]c2ccccc23)c1`, the MIC against Staphylococcus aureus [1] and in the assay with Staphylococcus aureus [2] was more than 250 µg/mL in each case.
In the case of `COc1ccc(Nc2c3ccccc3nc3c2[nH]c2ccccc23)cc1`, the MIC with Staphylococcus aureus [1] turned out to be 16 µg/mL (≈ 47.1 µM); against Staphylococcus aureus [2] it was 8 µg/mL (≈ 23.6 µM).
The matching figures for `Clc1ccccc1Nc1c2ccccc2nc2c1[nH]c1ccccc12`: 8 µg/mL (≈ 23.3 µM) and 4 µg/mL (≈ 11.6 µM).
The matching figures for `Clc1cccc(Nc2c3ccccc3nc3c2[nH]c2ccccc23)c1`: 125 µg/mL (≈ 364 µM) and 125 µg/mL (≈ 364 µM).
The matching figures for `Clc1ccc(Nc2c3ccccc3nc3c2[nH]c2ccccc23)cc1`: 8 µg/mL (≈ 23.3 µM) and 4 µg/mL (≈ 11.6 µM).
With `Fc1ccc(Nc2c3ccccc3nc3c2[nH]c2ccccc23)cc1`, the MIC against Staphylococcus aureus [1] and against Staphylococcus aureus [2] was 8 µg/mL (≈ 24.4 µM) throughout.
As for `Cc1ccc(Nc2c3ccccc3nc3c2[nH]c2ccccc23)cc1`, the MIC against Staphylococcus aureus [1] and against Staphylococcus aureus [2] was 62.5 µg/mL (≈ 193 µM) throughout.
As for `O=[N+]([O-])c1ccc(Nc2c3ccccc3nc3c2[nH]c2ccccc23)cc1`, the MIC against Staphylococcus aureus [1] and with Staphylococcus aureus [2] was more than 250 µg/mL each time.
Turning to `CN(c1ccc(O)cc1)c1c2ccccc2nc2c1[nH]c1ccccc12`, the MIC in the assay with Staphylococcus aureus [1] and with Staphylococcus aureus [2] was more than 250 µg/mL in each case.
`Oc1ccc(Nc2c3ccccc3nc3c2[nH]c2ccc(Cl)cc23)cc1`: the MIC against Staphylococcus aureus [1] was 8 µg/mL (≈ 22.2 µM); with Staphylococcus aureus [2], 4 µg/mL (≈ 11.1 µM).
In the same order, the values of `COc1ccc2[nH]c3c(Nc4ccc(O)cc4)c4ccccc4nc3c2c1` are 2 µg/mL (≈ 5.63 µM) and 2 µg/mL (≈ 5.63 µM).
Take `Cc1ccc2[nH]c3c(Nc4ccc(O)cc4)c4ccccc4nc3c2c1`: the MIC in the assay on Staphylococcus aureus [1] is 4 µg/mL (≈ 11.8 µM); against Staphylococcus aureus [2] it was 2 µg/mL (≈ 5.89 µM).
In the same order, the values of `Cn1c2ccccc2c2nc3ccccc3c(Nc3ccc(O)cc3)c21` are 250 µg/mL (≈ 737 µM) and 8 µg/mL (≈ 23.6 µM).
In the same order, the values of `CC(=O)Oc1ccc(Nc2c3ccccc3nc3c2[nH]c2ccccc23)cc1.Cl` are 16 µg/mL and 8 µg/mL.
The matching figures for `Oc1ccc(Nc2c3ccccc3nc3c2oc2ccccc23)cc1`: 2 µg/mL (≈ 6.13 µM) and 2 µg/mL (≈ 6.13 µM).
With `Oc1ccc(Nc2c3c(nc4ccccc24)-c2ccccc2C3)cc1`, the MIC in the assay with Staphylococcus aureus [1] is 250 µg/mL (≈ 771 µM); against Staphylococcus aureus [2], more than 250 µg/mL.
In the same order, the values of `CC1c2ccccc2-c2nc3ccccc3c(Nc3ccc(O)cc3)c21` (stereo unspecified) are 16 µg/mL (≈ 47.3 µM) and 4 µg/mL (≈ 11.8 µM).
As to `Cl.Oc1ccc(Nc2c3ccccc3nc3ccccc23)cc1`, the MIC in the assay on Staphylococcus aureus [1] was 250 µg/mL; against Staphylococcus aureus [2] it was more than 250 µg/mL.
The T/C is the result in the treated group divided by that in the control group, in per cent. As to `COc1cc(NS(C)(=O)=O)ccc1Nc1c2ccccc2nc2c1[nH]c1ccccc12`, the MIC with Staphylococcus aureus [1] amounted to 8 µg/mL (≈ 18.5 µM); against Staphylococcus aureus [2] it was 16 µg/mL (≈ 37 µM). For the same compound, the T/C in the assay on P388 stood at 300%.

The values above are taken from ChEMBL document CHEMBL3632580, “Structure-activity relationship of indoloquinoline analogs anti-MRSA” (2015).
